# Target: T1, LecA (Pseudomonas aeruginosa, UniProt Q05097)
# T1 construct: made in house
# Assay: Competitive binding assay based on fluorescence polarization, LecA
# Description: Next, binding of the optimized divalent ligand 17 and its synthetic precursor 16 to LecA was evaluated by fluorescence polarization-based (FP) assays,[47] SPR, and ITC. […] Therefore, fluorescent ligand 17 was analyzed in a direct binding experiment by FP. […] The dissociation constants for 16 were 47.2 ± 11.3 nM (ITC) and 47.8 ± 44.1 nM (steady-state SPR), while for 17, the values were 64.1 ± 31.1 nM and 79.3 ± 24.9 nM (steady-state SPR). For the SPR experiments, Kd was also determined by single-cycle kinetic analysis resulting in approximately five times higher affinity, but the data have limited reliability due to suboptimal fit for the kinetic curves (Figures S13B and S14).[58]−[60] […]
# 137 mM NaCl, 2.6 mM KCl at pH 7.4 supplemented with 1 mM CaCl2). Protein concentration was determined by UV spectroscopy at 280 nm using a molar extinction coefficient of 27 960 M-1 cm-1 for LecA and 6 990 M-1 cm-1 for LecB.
# All synthesized alkyne precursors (S5m, S5p, S6m, S6p, S11, 25, S16, S22 and S24) were analysed in the previously established competitive binding assays based on fluorescence polarization (Figure S2).18,19 Galactose-based compounds (S5m, S5p, S6m, S6p, S11) were evaluated against LecA and C-glycoside-based compounds […] and S16 against LecB. […]
# PheraStar FS plate reader (BMG Labtech GmbH, Germany) with excitation filters at 485 nm and emission filters at 535 nm. […]
# T1 sequence (Q05097 whole entry): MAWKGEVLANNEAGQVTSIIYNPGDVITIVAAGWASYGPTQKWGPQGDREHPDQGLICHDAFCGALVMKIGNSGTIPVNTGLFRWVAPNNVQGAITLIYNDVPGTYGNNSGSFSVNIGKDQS
structure (smiles),measurement,value
C#CCCN(Cc1ccc(NC(=O)CCc2ccc(O[C@@H]3O[C@H](CO)[C@H](O)[C@H](O)[C@H]3O)cc2)cc1)Cc1ccc(NC(=O)CCc2ccc(O[C@@H]3O[C@H](CO)[C@H](O)[C@H](O)[C@H]3O)cc2)cc1 [compound 16],IC50,5.6 ± 2.2 µM

# From article PMC11672137, “High-Affinity Lectin Ligands Enable the Detection of Pathogenic Pseudomonas aeruginosa Biofilms: Implications for Diagnostics and Therapy” (JACS Au, 2024)
